pIC50, pKi: −log10 of the molar value.
Key:
[1] = molecular target: Cytoplasmic tyrosine-protein kinase BMX (Homo sapiens, UniProt P51813); assay: Etk [BMX(BMX1CGF1)] Takeda global kinase panel
[2] = molecular target: Serine/threonine-protein kinase N1 (Homo sapiens, UniProt Q16512); assay: PKN1 [PRK1(PKN1LGY1)] Takeda global kinase panel
[3] = molecular target: Cyclin-dependent kinase 9 (Homo sapiens, UniProt P50750); assay: CDK9(CDK9CGS1) Takeda global kinase panel
[4] = molecular target: Epidermal growth factor receptor (Homo sapiens, UniProt P00533); assay: Inhibition of Epidermal Growth Factor (EGF) at 10 µM in the Eurofins-Panlabs radioligand binding assay (Eurofins_assay_225510); details: Compound concentration 10.0 uM
[5] = molecular target: Androgen receptor (Homo sapiens) (UniProt P10275); details: Compound concentration 10.0 uM
[6] = molecular target: Death-associated protein kinase 3 (Homo sapiens, UniProt O43293); assay: DAPK3(DAP3LGP1) Takeda global kinase panel
[7] = molecular target: GABA-A receptor; anion channel (Rattus norvegicus) (UniProt O09028+P15431+P18506+P18508+P19969+P20236+P23574+P23576+P28471+P28473+P30191+P62813+P63079+P63138+Q91ZM7+Q9ES14); details: Compound concentration 10.0 uM
[8] = molecular target: NT-3 growth factor receptor (Homo sapiens, UniProt Q16288); assay: TRKC(NTR3LGN1) Takeda global kinase panel
[9] = molecular target: Serine/threonine-protein kinase Nek5 (Homo sapiens, UniProt Q6P3R8); assay: Nek5(NEK5LGRD) Takeda global kinase panel
[10] = molecular target: Serine/threonine-protein kinase DCLK3 (Homo sapiens, UniProt Q9C098); assay: DCAMKL3(DCL3LGP1) Takeda global kinase panel
[11] = molecular target: cAMP-dependent protein kinase catalytic subunit alpha (Homo sapiens, UniProt P17612); assay: PKAalpha(PRCALGH1) Takeda global kinase panel
[12] = molecular target: 5'-AMP-activated protein kinase catalytic subunit alpha-1 (Homo sapiens, UniProt Q13131); assay: AMPKalpha1(PRA1PGF1) Takeda global kinase panel
[13] = molecular target: Serine/threonine-protein kinase pim-3 (Homo sapiens, UniProt Q86V86); assay: Pim3(PIM3LGP1) Takeda global kinase panel
[14] = molecular target: Dual specificity tyrosine-phosphorylation-regulated kinase 1A (Homo sapiens, UniProt Q13627); assay: DYRK1A(DY1ALGP1) Takeda global kinase panel
[15] = molecular target: G protein-coupled receptor kinase 6 (Homo sapiens, UniProt P43250); assay: GRK6(GRK6LGP1) Takeda global kinase panel
[16] = molecular target: Mitogen-activated protein kinase kinase kinase kinase 5 (Homo sapiens, UniProt Q9Y4K4); assay: KHS1(M4K5LGY1) Takeda global kinase panel
[17] = molecular target: Serine/threonine-protein kinase NLK (Homo sapiens, UniProt Q9UBE8); assay: NLK(NLK1LGI5) Takeda global kinase panel
[18] = molecular target: Serine/threonine-protein kinase Nek3 (Homo sapiens, UniProt P51956); assay: Nek3(NEK3LGRI) Takeda global kinase panel
Rattus norvegicus = species: Rattus norvegicus; assay: Inhibition of Thyroid Hormone at 10 µM in the Eurofins-Panlabs radioligand binding assay (Eurofins_assay_285900); format: protein assay; details: Compound concentration 10.0 uM
[19] = molecular target: Casein kinase I isoform gamma-1 (Homo sapiens, UniProt Q9HCP0); assay: CK1gamma1(C1G1LGI1) Takeda global kinase panel
Ephrin type-A receptor 4 = Ephrin type-A receptor 4 (Homo sapiens, UniProt P54764); assay: EphA4(EPA4LGF1) Takeda global kinase panel
[20] = molecular target: STE20/SPS1-related proline-alanine-rich protein kinase (Homo sapiens, UniProt Q9UEW8); assay: STLK3(ST39LGRJ) Takeda global kinase panel
[21] = molecular target: 5-hydroxytryptamine receptor 2A (Homo sapiens, UniProt P28223); assay: GPCRScan assay: inhibition of 5-HT2A; design: radioligand conc. used [nm] 1.2 – 2.4, parental cells HEKT
[22] = molecular target: Neuropeptide Y receptor type 1 (Homo sapiens) (UniProt P25929); assay: Inhibition of Neuropeptide Y Y1 at 10 µM in the Eurofins-Panlabs radioligand binding assay (Eurofins_assay_257010); details: Compound concentration 10.0 uM
[23] = molecular target: Casein kinase I isoform epsilon (Homo sapiens, UniProt P49674); assay: CK1epsilon(CS1ELGI5) Takeda global kinase panel
[24] = molecular target: Proto-oncogene tyrosine-protein kinase ROS (Homo sapiens, UniProt P08922); assay: Ros(ROS1PHY1) Takeda global kinase panel
[25] = molecular target: voltage-gated sodium channel, site 2 (Rattus norvegicus, UniProt F1LQQ7+O08562+O88420+O88457+P04774+P04775+P08104+P15389+P15390+Q62968); assay: Inhibition of Sodium Channel, Site 2 at 10 µM in the Eurofins-Panlabs radioligand binding assay (Eurofins_assay_279510); format: protein assay; design: ligand concentration 5 nM, non-specific ligand with concentration 100 µM Veratridine, incubation time 60 min, incubation temperature 37 °C; details: male, Wistar, rat whole brain (except cerebellum) membranes, probe [3H] Batrachotoxinin, compound concentration 10 uM
[26] = molecular target: PAS domain-containing serine/threonine-protein kinase (Homo sapiens, UniProt Q96RG2); assay: PASK(PASKPHY1) Takeda global kinase panel
[27] = molecular target: 5-hydroxytryptamine receptor 1A (Homo sapiens) (UniProt P08908); details: Compound concentration 10.0 uM
SRSF protein kinase 1 = SRSF protein kinase 1 (Homo sapiens, UniProt Q96SB4); assay: SRPK1(SRP1IHRL) Takeda global kinase panel
[28] = molecular target: Tyrosine-protein kinase ITK/TSK (Homo sapiens, UniProt Q08881); assay: ITK(ITK1CGF1) Takeda global kinase panel
[29] = molecular target: Phosphorylase b kinase gamma catalytic chain, skeletal muscle/heart isoform (Homo sapiens, UniProt Q16816); assay: PhKgamma1(PHG1LHY1) Takeda global kinase panel
[30] = molecular target: Tyrosine-protein kinase receptor UFO (Homo sapiens, UniProt P30530); assay: Axl(AXL1LGY1) Takeda global kinase panel
[31] = molecular target: MAP kinase-activated protein kinase 5 (Homo sapiens, UniProt Q8IW41); assay: MAPKAPK5(MPK5LGN1) Takeda global kinase panel
[32] = molecular target: Mixed lineage kinase domain-like protein (Homo sapiens, UniProt Q8NB16); assay: MLKL(MLKLPHY1) Takeda global kinase panel
[33] = molecular target: Serine/threonine-protein kinase D3 (Homo sapiens, UniProt O94806); assay: PKD3(PRD3LGG5) Takeda global kinase panel
[34] = molecular target: MAP kinase-activated protein kinase 2 (Homo sapiens, UniProt P49137); assay: MAPKAPK2(MPK2LGRH) Takeda global kinase panel
[35] = molecular target: Muscarinic acetylcholine receptor M3 (Homo sapiens) (UniProt P20309); details: Compound concentration 10.0 uM
[36] = molecular target: Beta-3 adrenergic receptor (Homo sapiens) (UniProt P13945); details: Compound concentration 10.0 uM
[37] = molecular target: Protein kinase C eta type (Homo sapiens, UniProt P24723); assay: PKCeta(PRKHLGRA) Takeda global kinase panel
[38] = molecular target: Sodium-dependent dopamine transporter (Homo sapiens) (UniProt Q01959); details: Compound concentration 10.0 uM

Sequence of 5-hydroxytryptamine receptor 2A (P28223 whole entry): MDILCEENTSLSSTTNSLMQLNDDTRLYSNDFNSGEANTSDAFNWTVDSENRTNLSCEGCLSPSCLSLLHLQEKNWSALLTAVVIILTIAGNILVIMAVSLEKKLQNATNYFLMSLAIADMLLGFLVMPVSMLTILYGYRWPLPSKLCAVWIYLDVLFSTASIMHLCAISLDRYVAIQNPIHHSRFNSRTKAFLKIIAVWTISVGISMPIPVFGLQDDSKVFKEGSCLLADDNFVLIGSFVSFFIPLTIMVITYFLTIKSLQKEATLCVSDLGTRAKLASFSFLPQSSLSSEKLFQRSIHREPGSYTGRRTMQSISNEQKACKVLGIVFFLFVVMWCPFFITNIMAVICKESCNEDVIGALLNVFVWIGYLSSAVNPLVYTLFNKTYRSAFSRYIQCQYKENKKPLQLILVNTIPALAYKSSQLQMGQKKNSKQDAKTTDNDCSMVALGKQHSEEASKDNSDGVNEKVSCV
Sequence of 5-hydroxytryptamine receptor 1A (Homo sapiens) (P08908 whole entry): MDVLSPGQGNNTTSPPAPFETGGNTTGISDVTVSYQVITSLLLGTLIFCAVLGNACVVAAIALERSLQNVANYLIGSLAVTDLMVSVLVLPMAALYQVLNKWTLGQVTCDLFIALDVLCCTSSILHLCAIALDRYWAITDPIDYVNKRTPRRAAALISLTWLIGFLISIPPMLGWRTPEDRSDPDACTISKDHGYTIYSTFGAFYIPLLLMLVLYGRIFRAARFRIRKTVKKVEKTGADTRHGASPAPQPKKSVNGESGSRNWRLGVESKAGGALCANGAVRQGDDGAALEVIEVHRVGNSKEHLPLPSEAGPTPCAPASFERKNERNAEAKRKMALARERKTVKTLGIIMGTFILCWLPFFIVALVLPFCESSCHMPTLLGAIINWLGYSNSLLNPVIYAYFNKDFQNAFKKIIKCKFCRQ
Sequence of Mitogen-activated protein kinase kinase kinase kinase 5 (Q9Y4K4 whole entry): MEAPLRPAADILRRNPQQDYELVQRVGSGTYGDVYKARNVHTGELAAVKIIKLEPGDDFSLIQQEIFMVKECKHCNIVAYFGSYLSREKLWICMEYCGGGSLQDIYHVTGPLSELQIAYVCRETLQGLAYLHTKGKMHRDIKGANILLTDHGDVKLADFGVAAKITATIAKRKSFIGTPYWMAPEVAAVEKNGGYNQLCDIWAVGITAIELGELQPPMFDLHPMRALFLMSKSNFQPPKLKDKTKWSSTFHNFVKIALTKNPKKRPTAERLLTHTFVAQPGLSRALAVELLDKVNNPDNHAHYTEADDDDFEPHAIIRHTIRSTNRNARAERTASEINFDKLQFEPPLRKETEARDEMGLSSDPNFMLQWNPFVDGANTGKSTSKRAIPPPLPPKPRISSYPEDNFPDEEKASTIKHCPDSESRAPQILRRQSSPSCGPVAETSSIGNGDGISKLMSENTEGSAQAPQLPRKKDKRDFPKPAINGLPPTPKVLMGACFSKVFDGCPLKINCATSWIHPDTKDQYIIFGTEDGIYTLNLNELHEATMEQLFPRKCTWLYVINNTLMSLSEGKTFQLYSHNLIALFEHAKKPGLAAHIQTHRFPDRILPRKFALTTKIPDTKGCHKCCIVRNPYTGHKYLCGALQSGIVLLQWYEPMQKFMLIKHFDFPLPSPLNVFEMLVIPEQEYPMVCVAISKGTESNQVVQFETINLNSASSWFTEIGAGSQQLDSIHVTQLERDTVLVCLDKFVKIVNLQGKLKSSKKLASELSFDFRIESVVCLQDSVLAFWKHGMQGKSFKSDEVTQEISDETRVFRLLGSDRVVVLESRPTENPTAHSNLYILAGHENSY
Sequence of Phosphorylase b kinase gamma catalytic chain, skeletal muscle/heart isoform (Q16816 whole entry, canonical isoform): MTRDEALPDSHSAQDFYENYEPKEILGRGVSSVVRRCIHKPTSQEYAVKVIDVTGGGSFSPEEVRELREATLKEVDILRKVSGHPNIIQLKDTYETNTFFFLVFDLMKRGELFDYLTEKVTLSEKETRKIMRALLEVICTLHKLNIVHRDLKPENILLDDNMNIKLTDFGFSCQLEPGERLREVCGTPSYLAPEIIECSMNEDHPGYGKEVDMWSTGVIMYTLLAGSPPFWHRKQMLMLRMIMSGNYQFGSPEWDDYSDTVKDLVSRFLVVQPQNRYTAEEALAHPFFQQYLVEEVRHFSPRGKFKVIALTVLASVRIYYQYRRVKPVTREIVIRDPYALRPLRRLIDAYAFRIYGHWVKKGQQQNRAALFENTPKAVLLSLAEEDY
Sequence of Neuropeptide Y receptor type 1 (Homo sapiens) (P25929 whole entry, canonical isoform): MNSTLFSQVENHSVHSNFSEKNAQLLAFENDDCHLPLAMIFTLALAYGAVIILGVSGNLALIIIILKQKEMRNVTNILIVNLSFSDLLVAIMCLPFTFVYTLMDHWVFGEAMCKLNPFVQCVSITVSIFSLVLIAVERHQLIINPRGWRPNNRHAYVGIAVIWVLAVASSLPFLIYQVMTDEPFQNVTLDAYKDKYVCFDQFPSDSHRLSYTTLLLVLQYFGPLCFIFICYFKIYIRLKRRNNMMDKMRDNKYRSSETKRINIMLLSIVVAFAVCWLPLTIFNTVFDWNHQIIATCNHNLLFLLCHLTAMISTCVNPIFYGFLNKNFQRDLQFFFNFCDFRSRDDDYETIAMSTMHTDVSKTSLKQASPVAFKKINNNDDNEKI
Sequence of Tyrosine-protein kinase ITK/TSK (Q08881 whole entry, canonical isoform): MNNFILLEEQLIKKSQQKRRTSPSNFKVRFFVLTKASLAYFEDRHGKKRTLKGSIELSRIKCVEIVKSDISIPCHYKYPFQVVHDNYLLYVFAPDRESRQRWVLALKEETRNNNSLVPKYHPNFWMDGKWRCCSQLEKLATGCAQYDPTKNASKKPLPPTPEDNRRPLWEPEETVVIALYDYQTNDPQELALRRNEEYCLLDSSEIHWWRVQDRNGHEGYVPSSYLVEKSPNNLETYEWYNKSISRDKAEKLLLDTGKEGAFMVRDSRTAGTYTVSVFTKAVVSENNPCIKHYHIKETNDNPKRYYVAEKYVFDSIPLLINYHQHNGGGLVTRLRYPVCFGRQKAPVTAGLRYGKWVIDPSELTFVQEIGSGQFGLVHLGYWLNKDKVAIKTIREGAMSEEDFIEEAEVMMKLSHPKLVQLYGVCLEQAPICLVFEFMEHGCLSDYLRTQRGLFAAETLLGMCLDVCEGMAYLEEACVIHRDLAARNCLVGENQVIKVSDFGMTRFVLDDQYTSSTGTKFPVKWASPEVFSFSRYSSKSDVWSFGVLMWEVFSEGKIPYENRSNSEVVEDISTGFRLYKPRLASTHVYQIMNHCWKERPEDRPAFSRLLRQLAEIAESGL
Sequence of Tyrosine-protein kinase receptor UFO (P30530 whole entry): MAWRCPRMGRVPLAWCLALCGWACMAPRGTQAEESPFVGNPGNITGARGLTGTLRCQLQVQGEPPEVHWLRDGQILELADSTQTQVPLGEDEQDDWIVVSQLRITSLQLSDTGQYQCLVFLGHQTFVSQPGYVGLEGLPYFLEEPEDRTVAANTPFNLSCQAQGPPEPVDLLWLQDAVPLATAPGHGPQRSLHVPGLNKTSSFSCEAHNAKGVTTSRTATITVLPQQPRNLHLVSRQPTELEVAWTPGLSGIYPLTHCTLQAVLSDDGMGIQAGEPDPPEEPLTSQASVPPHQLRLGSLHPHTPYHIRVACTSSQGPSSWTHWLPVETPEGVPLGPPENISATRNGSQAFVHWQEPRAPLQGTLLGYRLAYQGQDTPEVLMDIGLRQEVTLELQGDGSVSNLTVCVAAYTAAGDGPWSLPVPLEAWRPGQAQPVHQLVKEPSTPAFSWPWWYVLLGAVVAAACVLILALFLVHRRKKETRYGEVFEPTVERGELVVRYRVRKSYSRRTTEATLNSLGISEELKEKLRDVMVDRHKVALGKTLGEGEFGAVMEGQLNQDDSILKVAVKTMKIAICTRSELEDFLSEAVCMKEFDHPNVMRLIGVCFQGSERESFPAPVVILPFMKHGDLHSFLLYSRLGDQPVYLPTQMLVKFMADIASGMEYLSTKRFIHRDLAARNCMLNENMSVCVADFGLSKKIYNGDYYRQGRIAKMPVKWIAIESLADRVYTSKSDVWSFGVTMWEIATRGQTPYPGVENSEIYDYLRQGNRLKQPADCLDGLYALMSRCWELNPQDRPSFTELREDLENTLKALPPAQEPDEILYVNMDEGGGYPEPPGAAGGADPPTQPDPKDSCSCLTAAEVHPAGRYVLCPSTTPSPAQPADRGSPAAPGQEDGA
Sequence of Serine/threonine-protein kinase DCLK3 (Q9C098 whole entry): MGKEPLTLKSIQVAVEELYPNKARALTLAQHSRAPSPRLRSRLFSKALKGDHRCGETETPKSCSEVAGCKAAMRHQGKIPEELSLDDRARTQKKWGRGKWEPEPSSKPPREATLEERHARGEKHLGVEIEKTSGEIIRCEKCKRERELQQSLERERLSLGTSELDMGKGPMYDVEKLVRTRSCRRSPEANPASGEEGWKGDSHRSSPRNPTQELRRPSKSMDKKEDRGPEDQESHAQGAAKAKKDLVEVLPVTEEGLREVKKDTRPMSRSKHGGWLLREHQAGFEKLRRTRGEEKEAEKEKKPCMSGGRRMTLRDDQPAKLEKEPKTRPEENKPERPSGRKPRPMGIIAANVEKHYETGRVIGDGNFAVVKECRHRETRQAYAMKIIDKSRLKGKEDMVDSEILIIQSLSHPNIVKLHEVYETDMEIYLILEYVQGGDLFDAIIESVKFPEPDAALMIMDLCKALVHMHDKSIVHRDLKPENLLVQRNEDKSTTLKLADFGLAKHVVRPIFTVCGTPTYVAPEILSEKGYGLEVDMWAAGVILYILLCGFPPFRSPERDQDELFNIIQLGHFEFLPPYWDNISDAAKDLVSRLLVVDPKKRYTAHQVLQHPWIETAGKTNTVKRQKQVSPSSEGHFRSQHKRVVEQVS

CN1C(=O)[C@@H](N2CCc3c(nn(Cc4ccccc4)c3Br)C2=O)COc2ccccc21 [TP-030-2]
5.68: pKi ([21]; read-out: Ki)
6.00: pIC50 [1] | pIC50 [2] | pIC50 [3] | pIC50 [6] | pIC50 [8] | pIC50 [9] | pIC50 [10] | pIC50 [11] | pIC50 [12] | pIC50 [13] | pIC50 [14] | pIC50 [15] | pIC50 [16] | pIC50 [17] | pIC50 [18] | pIC50 [19] | pIC50 (Ephrin type-A receptor 4) | pIC50 [20] | pIC50 [23] | pIC50 [24] | pIC50 [26] | pIC50 (SRSF protein kinase 1) | pIC50 [28] | pIC50 [29] | pIC50 [30] | pIC50 [31] | pIC50 [32] | pIC50 [33] | pIC50 [34] | pIC50 [37]
42% (not active): inhibition at 60 min, 10 µM [25]
inactive: inhibition [4] 2% | inhibition [5] 6% | inhibition [7] 33.9% | inhibition (Rattus norvegicus) 4% | inhibition [22] 10% | inhibition [27] 18% | inhibition [35] 1.23% | inhibition [36] 39.3% | inhibition [38] 35%
2.04 µM: Ki ([21]; read-out: pKi (converted))
